In PMC8453635, “Piperidine Azasugars Bearing Lipophilic Chains: Stereoselective Synthesis and Biological Activity as Inhibitors of Glucocerebrosidase (GCase)” (The Journal of Organic Chemistry, 2021):

What follows are compounds tested against T1, α-galactosidase (Homo sapiens, UniProt P06280) (assay: Human lysosomal glycosidase selectivity screening (leukocyte homogenate)). Conditions: 1 mM, read-out: percentage of inhibition, α-Gal.
T1 construct: from leukocytes isolated from healthy donors (controls); from tissue; host or cells: leukocytes from healthy donors, sonicated homogenate
T1 sequence (P06280 32-429): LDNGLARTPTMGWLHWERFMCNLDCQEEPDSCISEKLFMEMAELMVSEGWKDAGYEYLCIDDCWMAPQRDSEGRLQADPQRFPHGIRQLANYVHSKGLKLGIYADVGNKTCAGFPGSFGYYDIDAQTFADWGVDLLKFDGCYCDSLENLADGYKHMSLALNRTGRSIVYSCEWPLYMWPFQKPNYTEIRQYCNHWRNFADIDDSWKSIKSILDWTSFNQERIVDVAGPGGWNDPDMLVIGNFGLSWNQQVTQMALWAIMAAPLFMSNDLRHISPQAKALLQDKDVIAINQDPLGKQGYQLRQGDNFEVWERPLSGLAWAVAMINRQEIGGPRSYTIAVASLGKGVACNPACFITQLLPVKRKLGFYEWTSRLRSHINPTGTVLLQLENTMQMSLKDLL
Type: biochemical
Experimental: In order to avoid undesired inhibitory side effects of a potential new drug, it has to be selective for a given target. The selectivity of the newly synthesized compounds 14, 15, and 33·HCl toward GCase was then investigated, evaluating their inhibition at 1 mM concentration toward six other lysosomal glycosidases (namely, α-and β-mannosidases, α- and β-galactosidases, α-fucosidase, and α-glucosidase) in cell homogenates (leucocytes or lymphocytes) isolated from healthy donors. […] Indeed, only moderate inhibitory activity (ca. 50%) was found toward human β-galactosidase for both piperidines 14 and 15, while negligible inhibitory activity was detected in all other cases.
The effect of 1 mM concentration of 14, 15, and 33·HCl was assayed toward six lysosomal glycosidases other than GCase, namely, α-mannosidase, β-mannosidase, α-galactosidase, β-galactosidase, α-fucosidase from leukocytes isolated from healthy donors (controls) and α-glucosidase from lymphocytes isolated from healthy donors’ flesh blood (controls). […]
μL, Sigma –Aldrich) in acetate buffer (0.1 M, pH 4.5) containing sodium azide (0.02%) were incubated at 37 °C for 1 h. Th e reaction was stopped by addition of sodium carbonate (200 μL; 0.5M, pH 10.7) containing Triton X -100 (0.0025 %), and the fluorescence 4 -methylumbelliferone released by α-galactosidase activity was measured in SpectraMax M2 microplate reader ( λex=365 nm, λem=435 nm; Molecular Devices). […]
α-Fucosidase activity was measured in a flat -bottomed 96 -well plate. […]
α-Glucosidase activity was measured in a flat –bottomed 96 well plate. […] The reaction was stopped by the addition of a solution of sodium carbonate (200 µL; 0.5M, pH 10.7) containing Triton X -100 (0.0025 %), and the fluorescence of 4 -methylumbelliferone released by α-glucosidase activity was measured in […]
Figure S 48. […] The corresponding calculated percentage of inhibition is indicated above each bar.

Q: With `CCCCCCCC[C@@H]1[C@@H](O)[C@H](O)[C@H](O)CN1C(CCCCCCC)CCCCCCC.Cl` [compound 33·HCl, (2R,3R,4R,5R)-2-Octyl-1-(pentadecan-8-yl)-piperidine-3,4,5-triol Hydrochloride] as the compound, how does the inhibition at 1000 µM read?
A: 1%

Q: Which inhibition at 1000 µM does the source give for `CCCCCCCC[C@H]1[C@@H](O)[C@H](O)[C@H](O)CN1CCCCCCCC` [compound 14, (2S,3R,4R,5R)-1,2-Dioctylpiperidine-3,4,5-triol] here?
A: 9%

Q: How did the inhibition at 1000 µM turn out when `CCCCCCCC[C@@H]1[C@@H](O)[C@H](O)[C@H](O)CN1CCCCCCCC` [compound 15, (2R,3R,4R,5R)-1,2-Dioctylpiperidine-3,4,5-triol] was run?
A: 8%
